Some targets named below: MYLK3 (human) (UniProt Q32MK0); CDK2 (human) (UniProt P24941); MET (human) (UniProt P08581); BTK (human) (UniProt Q06187); HIPK2 (human) (UniProt Q9H2X6); MAP3K1 (human) (UniProt Q13233); SIK3 (human) (UniProt Q9Y2K2); ROCK1 (human) (UniProt Q13464); CDKL5 (human) (UniProt O76039); EPHB6 (human) (UniProt O15197); MATK (human) (UniProt P42679); GRK4 (human) (UniProt P32298); IRAK1 (human) (UniProt P51617); TBK1 (human) (UniProt Q9UHD2); HUNK (human) (UniProt P57058); PLK2 (human) (UniProt Q9NYY3); GRK1 (human) (UniProt Q15835); MAP3K15 (human) (UniProt Q6ZN16); STK38 (human) (UniProt Q15208); PRPF4B (human) (UniProt Q13523); MAP3K2 (human) (UniProt Q9Y2U5); HIPK3 (human) (UniProt Q9H422).

Common to all, as to assay: KINOMEscan competition binding
Common to all, as to conditions: compound 10.0 µM

Experiment [1] relates to KIT (human), P10721 [V559D/T670I].
Experiment [2] deals with EGFR (human), P00533 [P753S; 747-752 del].
Experiment [3] deals with EGFR (human), P00533 [L861Q].
Experiment [4] concerns PIK3CA (human), P42336 [E545A].

PLK2 (human), sequence (Q9NYY3 whole entry, looked up): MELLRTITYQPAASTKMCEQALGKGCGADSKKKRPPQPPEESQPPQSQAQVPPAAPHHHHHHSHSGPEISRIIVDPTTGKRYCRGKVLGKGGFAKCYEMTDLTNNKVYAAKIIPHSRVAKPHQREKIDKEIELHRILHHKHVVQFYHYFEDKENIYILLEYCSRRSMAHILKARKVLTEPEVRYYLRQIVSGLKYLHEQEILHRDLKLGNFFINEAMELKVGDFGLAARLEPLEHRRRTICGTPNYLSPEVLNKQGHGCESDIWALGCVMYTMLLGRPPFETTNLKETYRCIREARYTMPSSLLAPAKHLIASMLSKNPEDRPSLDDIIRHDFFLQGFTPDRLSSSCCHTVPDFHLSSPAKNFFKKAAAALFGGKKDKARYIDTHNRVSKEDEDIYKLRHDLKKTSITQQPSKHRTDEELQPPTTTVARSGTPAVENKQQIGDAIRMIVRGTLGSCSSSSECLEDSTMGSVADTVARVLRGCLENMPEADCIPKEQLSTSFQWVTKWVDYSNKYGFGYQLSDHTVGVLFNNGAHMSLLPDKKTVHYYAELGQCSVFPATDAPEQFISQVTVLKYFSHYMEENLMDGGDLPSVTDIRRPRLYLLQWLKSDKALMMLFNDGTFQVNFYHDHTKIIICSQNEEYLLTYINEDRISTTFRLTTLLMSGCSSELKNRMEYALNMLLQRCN
GRK1 (human), sequence (Q15835 whole entry, looked up): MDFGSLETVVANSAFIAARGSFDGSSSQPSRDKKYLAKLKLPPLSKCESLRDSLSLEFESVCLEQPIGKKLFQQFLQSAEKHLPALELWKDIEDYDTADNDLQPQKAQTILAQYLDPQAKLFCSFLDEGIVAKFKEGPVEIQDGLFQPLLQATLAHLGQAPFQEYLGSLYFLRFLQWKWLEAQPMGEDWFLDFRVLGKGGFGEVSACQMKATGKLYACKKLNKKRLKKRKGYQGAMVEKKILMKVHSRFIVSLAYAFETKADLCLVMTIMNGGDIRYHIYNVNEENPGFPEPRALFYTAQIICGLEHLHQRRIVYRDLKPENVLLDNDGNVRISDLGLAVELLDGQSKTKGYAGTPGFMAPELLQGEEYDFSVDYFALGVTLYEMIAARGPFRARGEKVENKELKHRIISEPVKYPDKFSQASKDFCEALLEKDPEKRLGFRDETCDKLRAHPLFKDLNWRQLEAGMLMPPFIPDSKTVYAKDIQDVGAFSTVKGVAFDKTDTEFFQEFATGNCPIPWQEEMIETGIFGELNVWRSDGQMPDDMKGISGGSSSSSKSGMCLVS
GRK4 (human), sequence (P32298 whole entry, looked up): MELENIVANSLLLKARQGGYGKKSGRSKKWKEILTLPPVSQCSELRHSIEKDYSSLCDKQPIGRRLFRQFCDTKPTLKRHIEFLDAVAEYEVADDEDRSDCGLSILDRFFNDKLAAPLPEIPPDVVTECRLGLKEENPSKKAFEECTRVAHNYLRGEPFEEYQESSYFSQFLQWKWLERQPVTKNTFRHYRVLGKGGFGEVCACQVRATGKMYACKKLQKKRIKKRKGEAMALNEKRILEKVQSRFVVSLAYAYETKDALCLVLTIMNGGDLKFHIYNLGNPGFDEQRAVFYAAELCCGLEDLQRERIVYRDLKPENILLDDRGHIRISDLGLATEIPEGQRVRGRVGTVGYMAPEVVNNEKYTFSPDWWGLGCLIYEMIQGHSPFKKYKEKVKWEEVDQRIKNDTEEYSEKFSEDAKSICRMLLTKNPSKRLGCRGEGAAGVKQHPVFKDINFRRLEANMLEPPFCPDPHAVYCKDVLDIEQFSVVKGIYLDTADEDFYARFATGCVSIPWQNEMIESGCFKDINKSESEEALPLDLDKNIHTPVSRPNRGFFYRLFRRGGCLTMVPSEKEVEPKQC
SIK3 (human), sequence (Q9Y2K2 whole entry, looked up): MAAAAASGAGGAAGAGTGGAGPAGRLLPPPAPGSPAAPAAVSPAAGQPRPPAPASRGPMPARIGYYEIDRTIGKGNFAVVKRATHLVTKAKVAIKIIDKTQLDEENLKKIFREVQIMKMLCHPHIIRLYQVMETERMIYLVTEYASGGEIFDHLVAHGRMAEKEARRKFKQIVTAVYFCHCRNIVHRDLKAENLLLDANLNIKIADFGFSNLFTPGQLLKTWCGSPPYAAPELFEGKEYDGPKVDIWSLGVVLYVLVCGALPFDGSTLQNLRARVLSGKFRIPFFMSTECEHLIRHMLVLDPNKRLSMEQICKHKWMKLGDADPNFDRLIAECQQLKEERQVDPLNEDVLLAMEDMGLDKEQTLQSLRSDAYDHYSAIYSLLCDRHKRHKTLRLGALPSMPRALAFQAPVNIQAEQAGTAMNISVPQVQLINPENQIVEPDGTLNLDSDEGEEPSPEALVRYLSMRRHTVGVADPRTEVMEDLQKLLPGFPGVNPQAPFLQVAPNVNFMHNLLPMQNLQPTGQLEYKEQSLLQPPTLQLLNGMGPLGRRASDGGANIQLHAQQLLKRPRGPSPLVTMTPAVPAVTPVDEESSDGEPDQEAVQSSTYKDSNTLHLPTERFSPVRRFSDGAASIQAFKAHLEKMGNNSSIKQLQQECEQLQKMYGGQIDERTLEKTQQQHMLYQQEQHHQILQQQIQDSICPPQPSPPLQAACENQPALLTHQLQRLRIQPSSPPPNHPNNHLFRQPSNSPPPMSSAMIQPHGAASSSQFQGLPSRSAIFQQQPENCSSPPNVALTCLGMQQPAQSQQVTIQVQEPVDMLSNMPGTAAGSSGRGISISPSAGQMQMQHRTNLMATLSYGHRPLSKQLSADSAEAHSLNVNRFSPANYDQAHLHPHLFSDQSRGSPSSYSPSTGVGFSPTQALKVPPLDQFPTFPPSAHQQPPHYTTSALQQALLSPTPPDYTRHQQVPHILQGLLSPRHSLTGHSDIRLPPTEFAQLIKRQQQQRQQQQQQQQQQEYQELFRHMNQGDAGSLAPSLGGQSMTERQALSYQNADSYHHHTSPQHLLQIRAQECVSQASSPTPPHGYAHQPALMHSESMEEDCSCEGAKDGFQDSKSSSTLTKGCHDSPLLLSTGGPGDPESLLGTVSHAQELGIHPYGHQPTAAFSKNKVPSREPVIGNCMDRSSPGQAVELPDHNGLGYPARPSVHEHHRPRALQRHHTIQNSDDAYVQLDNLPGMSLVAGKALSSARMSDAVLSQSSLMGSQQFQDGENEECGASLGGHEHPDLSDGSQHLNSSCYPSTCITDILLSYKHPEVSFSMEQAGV
EPHB6 (human), sequence (O15197 whole entry, looked up): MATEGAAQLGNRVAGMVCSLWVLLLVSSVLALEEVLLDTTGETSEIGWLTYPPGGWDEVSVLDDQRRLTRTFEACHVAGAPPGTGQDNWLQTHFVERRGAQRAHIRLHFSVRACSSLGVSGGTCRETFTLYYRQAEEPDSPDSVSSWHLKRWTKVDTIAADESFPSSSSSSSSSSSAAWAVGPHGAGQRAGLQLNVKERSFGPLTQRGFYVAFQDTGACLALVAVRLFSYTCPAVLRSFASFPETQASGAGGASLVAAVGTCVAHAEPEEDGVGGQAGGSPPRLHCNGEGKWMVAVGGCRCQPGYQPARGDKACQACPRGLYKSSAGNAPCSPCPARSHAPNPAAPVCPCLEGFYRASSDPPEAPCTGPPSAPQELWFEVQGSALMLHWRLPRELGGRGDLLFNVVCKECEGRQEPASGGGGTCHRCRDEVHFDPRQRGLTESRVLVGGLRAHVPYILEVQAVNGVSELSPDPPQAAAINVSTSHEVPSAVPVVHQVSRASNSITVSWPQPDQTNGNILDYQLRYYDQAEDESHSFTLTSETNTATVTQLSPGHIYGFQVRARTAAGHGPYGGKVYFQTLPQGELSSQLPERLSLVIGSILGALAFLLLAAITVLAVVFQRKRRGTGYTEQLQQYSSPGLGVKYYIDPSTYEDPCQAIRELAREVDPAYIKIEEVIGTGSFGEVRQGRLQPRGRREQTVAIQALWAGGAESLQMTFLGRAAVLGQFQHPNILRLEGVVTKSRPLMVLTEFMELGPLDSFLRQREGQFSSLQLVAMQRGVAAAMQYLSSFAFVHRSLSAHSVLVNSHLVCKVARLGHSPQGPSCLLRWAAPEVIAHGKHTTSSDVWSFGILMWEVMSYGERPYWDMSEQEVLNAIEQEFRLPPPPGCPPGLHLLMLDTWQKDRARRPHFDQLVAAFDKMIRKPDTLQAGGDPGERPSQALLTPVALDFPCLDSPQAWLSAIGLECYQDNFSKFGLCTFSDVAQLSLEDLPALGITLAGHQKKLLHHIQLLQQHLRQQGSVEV
STK38 (human), sequence (Q15208 whole entry, looked up): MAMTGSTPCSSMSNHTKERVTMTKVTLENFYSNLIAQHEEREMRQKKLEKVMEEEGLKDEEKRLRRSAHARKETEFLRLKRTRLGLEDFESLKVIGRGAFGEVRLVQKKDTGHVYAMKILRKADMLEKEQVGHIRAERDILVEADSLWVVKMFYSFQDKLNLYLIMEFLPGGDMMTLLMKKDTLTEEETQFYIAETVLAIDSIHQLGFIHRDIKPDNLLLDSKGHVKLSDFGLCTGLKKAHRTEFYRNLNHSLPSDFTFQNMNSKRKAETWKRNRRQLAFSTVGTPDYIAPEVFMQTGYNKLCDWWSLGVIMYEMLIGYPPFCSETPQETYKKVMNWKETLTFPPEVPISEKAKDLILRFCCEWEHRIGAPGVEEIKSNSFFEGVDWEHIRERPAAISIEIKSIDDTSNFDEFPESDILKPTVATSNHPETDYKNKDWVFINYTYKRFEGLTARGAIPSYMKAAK

`C=CC(=O)Nc1cccc(Oc2nc(Nc3ccc(N4CCN(C)CC4)cc3OC)ncc2Cl)c1`: the kinase still bound, per cent of control was 100% on MYLK3 (human); 100% in experiment [1]; 100% at CDK2 (human); 20% at MET (human); 0.4% in experiment [2]; 0.05% in [3]. The same compound yielded a kinase still bound, per cent of control at BTK (human) of 0.1%.

Turning to `Cc1ccc(C(=O)Nc2cccc(C(F)(F)F)c2)cc1Nc1cncc(C(N)=O)c1`, the kinase still bound, per cent of control (on MYLK3 (human); in [1]; at CDK2 (human); on MET (human); in experiment [2]; in experiment [3]) was 100% throughout. Further, on BTK (human), the kinase still bound, per cent of control came to 100%.

For the compound `COc1cc(C(=O)NC2CCN(C)CC2)ccc1Nc1ncc2c(n1)N(C1CCCC1)C(C)CC(=O)N2C` (stereo not drawn), the kinase still bound, per cent of control (at MYLK3 (human); in experiment [1]; on CDK2 (human); at MET (human); in experiment [2]; in experiment [3]) was 100% each time. At BTK (human), the kinase still bound, per cent of control was determined as 100%.

For `OCCCNc1cc(-c2ccnc(Nc3cccc(Cl)c3)n2)ccn1`, the kinase still bound, per cent of control at HIPK2 (human) was 15%; at MYLK3 (human), 100%; at MAP3K1 (human) it was 100%; at SIK3 (human), 100%; in [4], 100%; at ROCK1 (human) it was 100%. The kinase still bound, per cent of control in [1] turned out to be 100%; at CDKL5 (human) it was 9.4%; at EPHB6 (human), 100%; at MATK (human), 100%; on CDK2 (human) it was 100%; at GRK4 (human), 100%. Moreover, the kinase still bound, per cent of control (at IRAK1 (human); on TBK1 (human); at MET (human); at HUNK (human); in experiment [2]; on PLK2 (human)) was 100% each time. In addition, the kinase still bound, per cent of control (at GRK1 (human); on MAP3K15 (human); on STK38 (human); in [3]; on PRPF4B (human); at MAP3K2 (human)) was 100% throughout. Besides, the kinase still bound, per cent of control at BTK (human) and at HIPK3 (human) was 100% each time.

Regarding `COc1cc(C(=O)NC2CCN(C)CC2)ccc1Nc1ncc2c(n1)N(C1CCCC1)CCC(=O)N2C(C)C`, the kinase still bound, per cent of control (on HIPK2 (human); on MYLK3 (human); at MAP3K1 (human); at SIK3 (human); in experiment [4]; on ROCK1 (human)) was 100% in each case. For the same compound, the kinase still bound, per cent of control (in experiment [1]; at CDKL5 (human); at EPHB6 (human); on MATK (human); at CDK2 (human); at GRK4 (human)) was 100% in each case. Further, the kinase still bound, per cent of control (at IRAK1 (human); at TBK1 (human); at MET (human); on HUNK (human); in [2]; at PLK2 (human)) was 100% each time. In addition, the kinase still bound, per cent of control (at GRK1 (human); at MAP3K15 (human); at STK38 (human); in [3]; at PRPF4B (human); at MAP3K2 (human)) was 100% each time. Also, the kinase still bound, per cent of control at BTK (human) and on HIPK3 (human) was 100% in each case.

Regarding `CC[C@@H]1C(=O)N(C)c2cnc(Nc3ccc(C(=O)NC4CCN(C)CC4)cc3OC)nc2N1C1CCCC1`, the kinase still bound, per cent of control (in experiment [1]; at CDK2 (human)) was 100% each time.

Turning to `Cn1c(=O)n(-c2ccc(C(C)(C)C#N)cc2)c2c3cc(-c4cnc5ccccc5c4)ccc3ncc21`, the kinase still bound, per cent of control (on HIPK2 (human); at MYLK3 (human); on MAP3K1 (human); at SIK3 (human); at ROCK1 (human); in experiment [1]) was 100% in each case. The kinase still bound, per cent of control on CDKL5 (human), on EPHB6 (human), on MATK (human), on CDK2 (human), on GRK4 (human) and on IRAK1 (human) was 100% throughout. For the same compound, the kinase still bound, per cent of control (at TBK1 (human); on HUNK (human); in experiment [2]; at PLK2 (human); at GRK1 (human); on MAP3K15 (human)) was 100% each time. Moreover, the kinase still bound, per cent of control (on STK38 (human); in [3]; at PRPF4B (human); on MAP3K2 (human); on HIPK3 (human)) was 100% throughout.

Source of the values: the kinase profiling compilation of Christmann-Franck et al. (2016).
